Converted amounts (≈) assume the structure as drawn. Like-named read-outs stand apart in the source and are kept apart here.
Tests used:
Type in all cases: cell-based
S. aureus Newman = assay: MIC test according to CLSI M7-A9, S. aureus Newman; conditions: Staphylococcus aureus, CLSI M7-A9, CAMHB, 24 h (Table 3), read-out: S. aureus ATCC Newman MIC
Method: (§1) MIC Test (S. aureus ATCC 29213, S. aureus ATCC 43300 and S. aureus Newman)
(§2) Susceptibility testing of S. aureus ATCC 29213, ATCC 43300 and Newman was performed according to Clinical Laboratory Standard Institute (CLSI) guidelines M7-A9. Test articles were stored at room temperature prior to use, then dissolved in filtered sterile DMSO. Stock DMSO solutions were diluted further in cation-adjusted Mueller Hinton broth (CAMHB) to provide appropriate test concentrations. Cultures of S. aureus (ATCC 29213, ATCC 43300 or Newman) were added in accordance with CLSI guidelines and plates incubated at 37° C. in air for 24 h. Endpoints were determined visually (and by spectrophotometer at 600 nm) and the minimum inhibitory concentration (MIC) defined as the lowest concentration of test articles resulting in complete inhibition of visible bacterial growth. Results are detailed in Table 2 (S. aureus ATCC 29213 and ATCC 43300) and Table 3 (S. aureus ATCC 29213, ATCC 43300 and Newman).

S. aureus ATCC 29213 = assay: MIC test according to CLSI M7-A9, S. aureus ATCC 29213; conditions: Staphylococcus aureus, ATCC29213, CLSI M7-A9, CAMHB
Method: as §1, §2

S. aureus ATCC 43300 = assay: MIC test according to CLSI M7-A9, S. aureus ATCC 43300; conditions: Staphylococcus aureus, ATCC43300; CLSI M7-A9, CAMHB, 24 h (Table 2); read-out: S. aureus ATCC 43300 MIC at 24 h
Method: as §1, §2

[1] = 24 h (Table 3), read-out: S. aureus ATCC 29213 MIC
[2] = 24 h (Table 2), read-out: S. aureus ATCC 29213 MIC at 24 h

| SMILES | MIC (S. aureus Newman) [µg/mL] | MIC (S. aureus ATCC 29213; [1]) [µg/mL] | MIC (S. aureus ATCC 43300) [µg/mL] | MIC (S. aureus ATCC 29213; [2]) [µg/mL] |
| --- | --- | --- | --- | --- |
| CN(C)CCCNc1nc(-c2ccc(C(C)(C)C)cc2)nc2c(CC34CC5CC(CC(C5)C3)C4)c(=O)[nH]n12 [Example 120, 8-(adamantan-1-ylmethyl)-2-(4-tert-butylphenyl)-4-{[3-(dimethylamino)propyl]amino}-6H,7H-pyrazolo[1,5-a][1,3,5]triazin-7-one] | 1 (≈ 1.94 µM) | 1 (≈ 1.94 µM) | – | – |
| CC(C)(C)c1ccc(-c2nc(NCC(F)(F)CNC3Cc4ccccc4C3)n3[nH]c(=O)cc3n2)cc1 [Example 89, 2-(4-tert-Butylphenyl)-4-({3-[(2,3-dihydro-1H-inden-2-yl)amino]-2,2-difluoropropyl}amino)-6H,7H-pyrazolo[1,5-a][1,3,5]triazin-7-one] | 8 (≈ 16.2 µM) | 8 (≈ 16.2 µM) | – | – |
| CC(C)(C)c1ccc(-c2nc(NCCCNC3Cc4ccccc4C3)n3[nH]c(=O)c(Cc4c[nH]cn4)c3n2)cc1 [Example 109, 2-(4-tert-butylphenyl)-4-({3-[(2,3-dihydro-1H-inden-2-yl)amino]propyl}amino)-8-(1H-imidazol-4-ylmethyl)-6H,7H-pyrazolo[1,5-a][1,3,5]triazin-7-one] | 1 (≈ 1.86 µM) | 4 (≈ 7.45 µM) | – | – |
| O=c1[nH]n2c(NCCCN3CCc4ccccc4C3)nc(C34CC5CC(CC(C5)C3)C4)nc2c1Cc1ccccc1 [Example 124, 2-(adamantan-1-yl)-8-benzyl-4-{[3-(1,2,3,4-tetrahydroisoquinolin-2-yl)propyl]amino}-6H,7H-pyrazolo[1,5-a][1,3,5]triazin-7-one] | 2 (≈ 3.64 µM) | 128 (≈ 233 µM) | – | – |
| CC(C)(C)c1ccc(-c2nc(NCCCN3CCCc4ccccc43)n3[nH]c(=O)cc3n2)cc1 [Example 76, 2-(4-tert-butylphenyl)-4-{[3-(1,2,3,4-tetrahydroquinolin-1-yl)propyl]amino}-6H,7H-pyrazolo[1,5-a][1,3,5]triazin-7-one] | 4 (≈ 8.76 µM) | 4 (≈ 8.76 µM) | – | – |
| Cc1ccc(Cc2c(=O)[nH]n3c(N4CCN(C)CC4)nc(-c4ccc(C(C)(C)C)cc4)nc23)cn1 [Example 117, 2-(4-tert-butylphenyl)-4-(4-methylpiperazin-1-yl)-8-[(6-methylpyridin-3-yl)methyl]-6H,7H-pyrazolo[1,5-a][1,3,5]triazin-7-one] | 128 (≈ 271 µM) | 128 (≈ 271 µM) | – | – |
| CC(C)(C)c1ccc(-c2nc(NCC(=O)NC3Cc4ccccc4C3)n3[nH]c(=O)cc3n2)cc1 [Example 88, 2-{[2-(4-tert-butylphenyl)-7-oxo-6H,7H-pyrazolo[1,5-a][1,3,5]triazin-4-yl]amino}-N-(2,3-dihydro-1H-inden-2-yl)acetamide] | 128 (≈ 280 µM) | > 128 | – | – |
| CN(C)CCCNc1nc(C23CC4CC(CC(C4)C2)C3)nc2c(Cc3ccccc3)c(=O)[nH]n12 [Example 123, 2-(adamantan-1-yl)-8-benzyl-4-{[3-(dimethylamino)propyl]amino}-6H,7H-pyrazolo[1,5-a][1,3,5]triazin-7-one] | 4 (≈ 8.68 µM) | 4 (≈ 8.68 µM) | – | – |
| CC(C)(C)c1ccc(-c2nc(NCCCc3ccccc3)n3[nH]c(=O)c(Cc4c[nH]cn4)c3n2)cc1 [Example 111, 2-(4-tert-butylphenyl)-8-(1H-imidazol-4-ylmethyl)-4-[(3-phenylpropyl)amino]-6H,7H-pyrazolo[1,5-a][1,3,5]triazin-7-one] | 2 (≈ 4.15 µM) | 4 (≈ 8.31 µM) | – | – |
| Cc1ccc(Cc2c(=O)[nH]n3c(NCCCO)nc(-c4ccc(C(C)(C)C)cc4)nc23)cn1 [Example 113, 2-(4-tert-butylphenyl)-4-[(3-hydroxypropyl)amino]-8-[(6-methylpyridin-3-yl)methyl]-6H,7H-pyrazolo[1,5-a][1,3,5]triazin-7-one] | 32 (≈ 71.7 µM) | 32 (≈ 71.7 µM) | – | – |
| CN(C)CCNc1nc(-c2ccc(C(C)(C)C)cc2)nc2cc(=O)[nH]n12 [Example 25, 2-(4-tert-butylphenyl)-4-{[2-(dimethylamino)ethyl]amino}-6H,7H-pyrazolo[1,5-a][1,3,5]triazin-7-one] | – | – | 32 (≈ 90.3 µM) | 64 (≈ 181 µM) |
| Cc1ccc(-c2nc(NCCCOc3ccc(Cl)c(C)c3)n3[nH]c(=O)cc3n2)cc1 [Example 67, 4-{[3-(4-chloro-3-methylphenoxy)propyl]amino}-2-(4-methylphenyl)-6H,7H-pyrazolo[1,5-a][1,3,5]triazin-7-one] | – | – | > 64 | > 64 |
| CC(C)(C)c1ccc(-c2nc(NCCCO)n3[nH]c(=O)cc3n2)cc1 [Example 22, 2-(4-tert-butylphenyl)-4-[(3-hydroxypropyl)amino]-6H,7H-pyrazolo[1,5-a][1,3,5]triazin-7-one] | – | – | 32 (≈ 93.7 µM) | 8 (≈ 23.4 µM) |

Continued, values first:

| MIC (S. aureus Newman) [µg/mL] | MIC (S. aureus ATCC 29213; [1]) [µg/mL] | MIC (S. aureus ATCC 43300) [µg/mL] | MIC (S. aureus ATCC 29213; [2]) [µg/mL] | SMILES |
| --- | --- | --- | --- | --- |
| 32 (≈ 70.7 µM) | 32 (≈ 70.7 µM) | – | – | CCCCN(CCCC)CCCNc1nc(-c2ccc(C(C)(C)C)cc2)nc2cc(=O)[nH]n12 [Example 78, 2-(4-tert-butylphenyl)-4-{[3-(dibutylamino)propyl]amino}-6H,7H-pyrazolo[1,5-a][1,3,5]triazin-7-one] |
| 16 (≈ 34.9 µM) | 64 (≈ 140 µM) | – | – | O=c1cc2nc(C34CC5CC(CC(C5)C3)C4)nc(NCCCN3CCc4ccccc4C3)n2[nH]1 [Example 102, 2-(adamantan-1-yl)-4-{[3-(1,2,3,4-tetrahydroisoquinolin-2-yl)propyl]amino}-6H,7H-pyrazolo[1,5-a][1,3,5]triazin-7-one] |
| 0.5 (≈ 1.11 µM) | 8 (≈ 17.8 µM) | – | – | CC(C)(C)c1ccc(-c2nc3c(CC45CC6CC(CC(C6)C4)C5)c(=O)[nH]n3c(=S)[nH]2)cc1 [Example 118, 8-(adamantan-1-ylmethyl)-2-(4-tert-butylphenyl)-4-sulfanylidene-3H,4H,6H,7H-pyrazolo[1,5-a][1,3,5]triazin-7-one] |
| 8 (≈ 21 µM) | 16 (≈ 42.1 µM) | – | – | CC(C)(C)c1nc(NCCCNC2Cc3ccccc3C2)n2[nH]c(=O)cc2n1 [Example 95, 2-tert-butyl-4-({3-[(2,3-dihydro-1H-inden-2-yl)amino]propyl}amino)-6H,7H-pyrazolo[1,5-a][1,3,5]triazin-7-one] |
| 64 (≈ 161 µM) | 64 (≈ 161 µM) | – | – | CC(C)(C)c1ccc(-c2nc(N3CCN(CCO)CC3)n3[nH]c(=O)cc3n2)cc1 [Example 77, 2-(4-tert-butylphenyl)-4-[4-(2-hydroxyethyl)piperazin-1-yl]-6H,7H-pyrazolo[1,5-a][1,3,5]triazin-7-one] |
| 4 (≈ 7.12 µM) | 4 (≈ 7.12 µM) | – | – | Cc1ccc(Cc2c(=O)[nH]n3c(NCCCNC4Cc5ccccc5C4)nc(-c4ccc(C(C)(C)C)cc4)nc23)cn1 [Example 116, 2-(4-tert-butylphenyl)-4-({3-[(2,3-dihydro-1H-inden-2-yl)amino]propyl}amino)-8-[(6-methylpyridin-3-yl)methyl]-6H,7H-pyrazolo[1,5-a][1,3,5]triazin-7-one] |
| 32 (≈ 122 µM) | 128 (≈ 486 µM) | – | – | CCCCNc1nc(C(C)(C)C)nc2cc(=O)[nH]n12 [Example 96, 2-tert-butyl-4-(butylamino)-6H,7H-pyrazolo[1,5-a][1,3,5]triazin-7-one] |
| 16 (≈ 35 µM) | 32 (≈ 70.1 µM) | – | – | CC(C)(C)c1ccc(-c2nc(NCCCN3CCc4ccccc4C3)n3[nH]c(=O)cc3n2)cc1 [Example 91, 2-(4-tert-butylphenyl)-4-{[3-(1,2,3,4-tetrahydroisoquinolin-2-yl)propyl]amino}-6H,7H-pyrazolo[1,5-a][1,3,5]triazin-7-one] |
| 16 (≈ 32.7 µM) | 16 (≈ 32.7 µM) | – | – | CC(C)(C)c1ccc(-c2nc(NCCCO)n3[nH]c(=O)c(CC45CC6CC(CC(C6)C4)C5)c3n2)cc1 [Example 119, 8-(adamantan-1-ylmethyl)-2-(4-tert-butylphenyl)-4-[(3-hydroxypropyl)amino]-6H,7H-pyrazolo[1,5-a][1,3,5]triazin-7-one] |
| – | – | > 32 | > 32 | CC(C)(C)c1ccc(-c2nc(NCCCOc3cnccn3)n3[nH]c(=O)cc3n2)cc1 [Example 50, 2-(4-tert-butylphenyl)-4-{[3-(pyrazin-2-yloxy)propyl]amino}-6H,7H-pyrazolo[1,5-a][1,3,5]triazin-7-one] |
| – | – | 2 (≈ 4.14 µM) | 4 (≈ 8.28 µM) | Cc1cc(NCC(F)CNc2nc(-c3ccc(C(C)(C)C)cc3)nc3cc(=O)[nH]n23)ccc1Cl (stereo not drawn) [Example 66, 2-(4-tert-butylphenyl)-4-({3-[(4-chloro-3-methylphenyl)amino]-2-fluoropropyl}amino)-6H,7H-pyrazolo[1,5-a][1,3,5]triazin-7-one] |
| – | – | 64 (≈ 175 µM) | 64 (≈ 175 µM) | CN1CCN(c2nc(-c3ccc(C(C)(C)C)cc3)nc3cc(=O)[nH]n23)CC1 [Example 18, 2-(4-tert-butylphenyl)-4-(4-methylpiperazin-1-yl)-6H,7H-pyrazolo[1,5-a][1,3,5]triazin-7-one] |
| – | – | > 64 | > 64 | CC(C)(C)c1ccc(-c2nc(NCCCn3ccncc3=O)n3[nH]c(=O)cc3n2)cc1 [Example 51, 1-(3-{[2-(4-tert-butylphenyl)-7-oxo-6H,7H-pyrazolo[1,5-a][1,3,5]triazin-4-yl]amino}propyl)-1,2-dihydropyrazin-2-one] |
| – | – | > 128 | 32 (≈ 69.9 µM) | CC(C)(C)c1ccc(-c2nc(N3CCC(OCc4ccccc4)CC3)n3[nH]c(=O)cc3n2)cc1 [Example 21, 4-[4-(benzyloxy)piperidin-1-yl]-2-(4-tert-butylphenyl)-6H,7H-pyrazolo[1,5-a][1,3,5]triazin-7-one] |

— patent US20180162862A1 (President and Fellows of Harvard College, priority 2015, published 2018)
